Laboratory results published in PubChem BioAssay AID1963874 (Molecular Pharmacology Branch, DTP, NCI, 2024).
pIC50: −log10 of the molar value.

Tested on: 253994-281-T-J1-PDC KRAS-mutant spheroids with HUVEC/MSC, viability
Assay: Anticancer human tumor 253994-281-T-J1-PDC patient-derived colorectal carcinoma cell line growth inhibition [KRAS2]
Conditions: for pIC50: curve of first compound; for viability, T/C: stronger effect = lower value
Method in brief: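 Combination screen of spheroid viability in tumor-cell co-cultures with endothelial (HUVEC) and mesenchymal stem cell stroma. Each agent was tested in half-log dilutions, topping at clinical Cmax or at 10 microM without a known Cmax.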

[1] = second compound 0.1 µM, first compound 0.000316 µM
[2] = second compound 0.1 µM, first compound 0.001 µM
[3] = second compound 0.1 µM, first compound 0.00316 µM
[4] = second compound 0.1 µM, first compound 0.01 µM
[5] = second compound 0.1 µM, first compound 0.0316 µM
[6] = second compound 0.316 µM, first compound 0.000316 µM
[7] = second compound 0.316 µM, first compound 0.001 µM
[8] = second compound 0.316 µM, first compound 0.00316 µM
[9] = second compound 0.316 µM, first compound 0.01 µM
[10] = second compound 0.316 µM, first compound 0.0316 µM
[11] = second compound 1 µM, first compound 0.000316 µM
[12] = second compound 1 µM, first compound 0.001 µM
[13] = second compound 1 µM, first compound 0.00316 µM
[14] = second compound 1 µM, first compound 0.01 µM
[15] = second compound 1 µM, first compound 0.0316 µM
[16] = second compound 3.16 µM, first compound 0.000316 µM
[17] = second compound 3.16 µM, first compound 0.001 µM
[18] = second compound 3.16 µM, first compound 0.00316 µM
[19] = second compound 3.16 µM, first compound 0.01 µM
[20] = second compound 3.16 µM, first compound 0.0316 µM
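Also: spheroids exposed to agents for seven days before readout.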
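For viability, T/C in this document: percent of DMSO vehicle control viability.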

CN(C)C/C=C/C(=O)Nc1cc2c(Nc3ccc(F)c(Cl)c3)ncnc2cc1O[C@H]1CCOC1 + CC1OCC2(CCN(c3cnc(Sc4ccnc(N)c4Cl)c(N)n3)CC2)C1N
pIC50 (second compound 0.1 µM): < 7.00 | pIC50 (second compound 0.316 µM): 7.06 | pIC50 (second compound 1 µM): < 7.00 | pIC50 (second compound 3.16 µM): > 9.50 | pIC50 (second compound 10 µM): < 7.00 | viability, T/C [1]: 85.5% | viability, T/C [2]: 74.8% | viability, T/C [3]: 91.2% | viability, T/C [4]: 79.3% | viability, T/C [5]: 81.4% | viability, T/C (second compound 0.1 µM, first compound 0.1 µM): 58.5% | viability, T/C [6]: 57.1% | viability, T/C [7]: 72.1% | viability, T/C [8]: 79.6% | viability, T/C [9]: 70.6% | viability, T/C [10]: 74% | viability, T/C (second compound 0.316 µM, first compound 0.1 µM): 47% | viability, T/C [11]: 79% | viability, T/C [12]: 97% | viability, T/C [13]: 79.5% | viability, T/C [14]: 86.3% | viability, T/C [15]: 86.2% | viability, T/C (second compound 1 µM, first compound 0.1 µM): 83.5% | viability, T/C [16]: 31.1% | viability, T/C [17]: 37.2% | viability, T/C [18]: 37.3% | viability, T/C [19]: 42.9% | viability, T/C [20]: 37.6% | viability, T/C (second compound 3.16 µM, first compound 0.1 µM): 31.4% | viability, T/C (second compound 10 µM, first compound 0.000316 µM): 75.4% | viability, T/C (second compound 10 µM, first compound 0.001 µM): 102% | viability, T/C (second compound 10 µM, first compound 0.00316 µM): 78.1% | viability, T/C (second compound 10 µM, first compound 0.01 µM): 106% | viability, T/C (second compound 10 µM, first compound 0.0316 µM): 83.7% | viability, T/C (second compound 10 µM, first compound 0.1 µM): 65.7%

CC(=O)Nc1cccc(-n2c(=O)n(C3CC3)c(=O)c3c(Nc4ccc(I)cc4F)n(C)c(=O)c(C)c32)c1 + C=CC(=O)N1CCN(c2nc(OCC3CCCN3C)nc3c2CCN(c2cccc4cccc(C)c24)C3)CC1CC#N
pIC50 (second compound 0.0316 µM): 8.80 | pIC50 (second compound 0.1 µM): 9.01 | pIC50 (second compound 0.316 µM): 9.18 | pIC50 (second compound 1 µM): 9.21 | pIC50 (second compound 3.16 µM): > 10.00 | viability, T/C (second compound 0.0316 µM, first compound 0.0001 µM): 86.7% | viability, T/C (second compound 0.0316 µM, first compound 0.000316 µM): 84.6% | viability, T/C (second compound 0.0316 µM, first compound 0.001 µM): 66% | viability, T/C (second compound 0.0316 µM, first compound 0.00316 µM): 24.7% | viability, T/C (second compound 0.0316 µM, first compound 0.01 µM): 12% | viability, T/C (second compound 0.0316 µM, first compound 0.0316 µM): 6.91% | viability, T/C (second compound 0.1 µM, first compound 0.0001 µM): 72.5% | viability, T/C [1]: 76.9% | viability, T/C [2]: 47% | viability, T/C [3]: 22.2% | viability, T/C [4]: 14.6% | viability, T/C [5]: 6.68% | viability, T/C (second compound 0.316 µM, first compound 0.0001 µM): 74.9% | viability, T/C [6]: 64.7% | viability, T/C [7]: 41.4% | viability, T/C [8]: 20.9% | viability, T/C [9]: 9.84% | viability, T/C [10]: 4.12% | viability, T/C (second compound 1 µM, first compound 0.0001 µM): 78.9% | viability, T/C [11]: 68% | viability, T/C [12]: 34.6% | viability, T/C [13]: 23.4% | viability, T/C [14]: 8.81% | viability, T/C [15]: 4.05% | viability, T/C (second compound 3.16 µM, first compound 0.0001 µM): 23.4% | viability, T/C [16]: 11.8% | viability, T/C [17]: 31.7% | viability, T/C [18]: 3.64% | viability, T/C [19]: 0.37% | viability, T/C [20]: 1.21%
